Laboratory results from ChEMBL document CHEMBL6134904, “Discovery of Potent PDEδ/NAMPT Dual Inhibitors: Preclinical Evaluation in KRAS Mutant Pancreatic Cancer Cells” (J Med Chem, 2025).
pIC50, pKd: −log10 of the molar value.

How the values were obtained:
[1] = biological target: Retinal rod rhodopsin-sensitive cGMP 3',5'-cyclic phosphodiesterase subunit delta (Homo sapiens, UniProt O43924)
[2] = system: HCT-116; assay: cells; conditions: Homo sapiens, HCT-116, 72 h
Description: Antiproliferative activity against human HCT-116 cells assessed as inhibition of cell growth incubated for 72 hrs by CCK8 assay

[3] = system: A549; assay: Antiproliferative activity against human A549 cells assessed as inhibition of cell growth incubated for 72 hrs in presence of 1-(4-(piperidin-1-ylsulfonyl)phenyl)-3-(pyridin-3-ylmethyl)thiourea by CCK8 assay; assay type: functional, cell-based; conditions: A549, 72 h
[4] = system: MIA PaCa-2; assay: Synergistic antiproliferative activity against human MIA PaCa-2 cells harboring KRAS G12C mutant assessed as inhibition of cell growth by measuring combination index at 1:2 molar ratio of test compound:1-(4-(piperidin-1-ylsulfonyl)phenyl)-3-(pyridin-3-ylmethyl)thiourea by chou-talalay method; assay type: functional
[5] = system: MIA PaCa-2; assay: Antiproliferative activity against human MIA PaCa-2 cells assessed as inhibition of cell growth incubated for 72 hrs in presence of 1-(4-(piperidin-1-ylsulfonyl)phenyl)-3-(pyridin-3-ylmethyl)thiourea by CCK8 assay; assay type: functional, cell-based; conditions: MIA PaCa-2, 72 h
[6] = system: MIA PaCa-2; assay: cells; conditions: Homo sapiens, MIA PaCa-2, 72 h
Description: Antiproliferative activity against human MIA PaCa-2 cells assessed as inhibition of cell growth incubated for 72 hrs by CCK8 assay

[7] = system: MIA PaCa-2; assay: Antitumor activity against human MIA PaCa-2 cells xenografted in female BALB/C nude mouse assessed as tumor growth inhibition at 20 mg/kg, ip administered once daily for 21 days relative to control; conditions: MIA PaCa-2, 504 h, read-out: TGI
[8] = system: MIA PaCa-2; assay: Antitumor activity against human MIA PaCa-2 cells xenografted in female BALB/C nude mouse assessed as tumor growth inhibition at 20 mg/kg, ip co-administered with 1-(4-(piperidin-1-ylsulfonyl)phenyl)-3-(pyridin-3-ylmethyl)thiourea once daily for 21 days relative to control; assay type: functional; conditions: MIA PaCa-2, 504 h, time 21 day, read-out: TGI
[9] = system: HCT-116; assay: Antiproliferative activity against human HCT-116 cells assessed as inhibition of cell growth incubated for 72 hrs in presence of 1-(4-(piperidin-1-ylsulfonyl)phenyl)-3-(pyridin-3-ylmethyl)thiourea by CCK8 assay; assay type: functional, cell-based; conditions: HCT-116, 72 h
[10] = system: A549; assay: cells; conditions: Homo sapiens, A549, 72 h
Description: Antiproliferative activity against human A549 cells assessed as inhibition of cell growth incubated for 72 hrs by CCK8 assay

[11] = biological target: Nicotinamide phosphoribosyltransferase (Homo sapiens, UniProt P43490)
Sequence of Nicotinamide phosphoribosyltransferase (P43490 whole entry): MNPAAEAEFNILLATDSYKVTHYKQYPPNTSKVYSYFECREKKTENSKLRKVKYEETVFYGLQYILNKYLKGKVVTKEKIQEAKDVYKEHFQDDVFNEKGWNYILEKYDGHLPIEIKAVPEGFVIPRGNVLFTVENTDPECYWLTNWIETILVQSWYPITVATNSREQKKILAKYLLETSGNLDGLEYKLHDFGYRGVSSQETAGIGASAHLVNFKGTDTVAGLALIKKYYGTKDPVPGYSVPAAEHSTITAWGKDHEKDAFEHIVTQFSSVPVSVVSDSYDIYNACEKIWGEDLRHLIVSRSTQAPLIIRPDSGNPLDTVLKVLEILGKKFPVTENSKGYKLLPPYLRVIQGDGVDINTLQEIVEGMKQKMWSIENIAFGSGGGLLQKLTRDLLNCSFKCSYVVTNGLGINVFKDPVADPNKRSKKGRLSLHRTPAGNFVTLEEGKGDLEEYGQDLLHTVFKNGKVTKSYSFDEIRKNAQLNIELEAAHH
Description: Inhibition of NAMPT (unknown origin) using NAM as substrate preincubated for 5 mins followed by substrate addition and measured after 15 mins by fluorescence based microtiter plate reader analysis

Sequence of Retinal rod rhodopsin-sensitive cGMP 3',5'-cyclic phosphodiesterase subunit delta (O43924 whole entry): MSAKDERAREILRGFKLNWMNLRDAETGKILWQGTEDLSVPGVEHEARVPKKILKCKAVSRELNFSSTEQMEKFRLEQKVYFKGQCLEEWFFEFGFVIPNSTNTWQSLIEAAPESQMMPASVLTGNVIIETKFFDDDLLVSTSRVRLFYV

| pKd [1] | pIC50 [2] | pIC50 [3] | pIC50 [5] | pIC50 [6] | pIC50 [9] | pIC50 [10] | pIC50 [11] | Structure (SMILES) | CI [4] | inhibition in vivo at 20 mg/kg [7] | inhibition in vivo at 20 mg/kg [8] |
| --- | --- | --- | --- | --- | --- | --- | --- | --- | --- | --- | --- |
| 8.29 | 5.16 | 7.41 | 6.89 | < 4.70 | 6.63 | < 4.70 | – | Cc1ccc(-n2nc3c(=O)n(CCC(=O)N4CCC(N5C(=O)c6ccccc6NC5c5ccccc5F)CC4)nc(C)c3c2C)cc1 (centres undefined) | <1 | 26.8% | 44.1% |
| – | 6.15 | – | – | 7.44 | – | 7.85 | 6.58 | O=C(/C=C/c1cccnc1)Nc1ccc(S(=O)(=O)N(Cc2ccc(Cl)cc2)C2CCCC2)cc1 | – | – | – |
